Test results reported in patent US8722850B2, “Self-assembling peptides and their use in the formation of hydrogels” (Universita' Degli Studi di Milano Bicocca, priority 2010, dated 2014).
“Also recorded” adds a separate entry of the source. Where a SMILES comes first, the peptide text is derived from it. The star is where a group is joined. Biotin = O=C1N[C@H]2[C@H](CS[C@H]2CCCCC(=O)*)N1

How the values were obtained:
[1] = system: human Neural Stem Cells (hNSCs); assay: Live/Dead cell imaging (calcein AM / ethidium homodimer); assay type: cell-based; settings: cells cultured for 10 days
Procedure: In vitro tests were performed following a previously adopted methodology (5). Briefly, cells (at a concentration of 6×10^4 cells/cm^2) were seeded on the top-surface of each assembled scaffold previously assembled into 96 multiwells. Initially, cells were cultured with basal medium supplemented with βFGF (10 ng/ml), added to enhance neuronal progeny differentiation. At 3 days in vitro (DIV), βFGF medium was replaced with Leukemia Inhibitory Factor (LIF, Chemicon) (20 ng/ml) and Brain Derived Neurotrophic Factor (BDNF, Peprotech) (20 ng/ml). Fresh medium was added every three days. Positive and negative controls consisted of CULTREX-BME® substrate (R&D systems) (1:100 dilution in basal medium) and untreated bottom well surfaces respectively.
Live/Dead cell imaging (MolecularProbes) was obtained by incubating cells cultured for 10 days with a staining solution containing 2.0 μM calcein AM and 4.0 μM ethidium homodimer in PBS at 37° C. for 60 min and visualized by inverted fluorescence microscope (Zeiss).

spinal cord of rats [2] = assay: In vivo toxicity / biocompatibility, injections into the spinal cord, 3 days; settings: three days after injection, versus saline
Procedure: (§1) To test if the SAPs according to the present invention show any toxicity when used in vivo we assessed the tissue reaction to multiple injections of B24 into the spinal cord of rats. All procedures involving animals were performed according to EC guidelines (EC Council Directive 86/609, 1987), to the Italian legislation on animal is experimentation (Decreto L. vo 116/92) and to protocols approved by the Animal Care and Use Committee of the University of Milan-Bicocca (IACUC 37/07).
Female Sprague-Dawley rats weighting 200-250 gr (Charles River Laboratories) were divided into two groups: 1) animals receiving injections of saline solution (control group, n=3) and 2) animals treated with B24 (n=3). In the case of long term observations (1 month) similar injections of B24 were used (n=2). Rats were anesthetized with an intraperitoneal injection of ketamine (80 mg/kg) and xylazine (10 mg/kg). The spinal cord was exposed at the T9-T10 level, and, after laminectomy, animals were injected with B24 (1% aqueous solution) or saline solution using a Hamilton syringe held via a micromanipulator. The solutions were delivered at distances of 500 μm, and two injections of 0.5 μl each were made at each interval, for a total dose of 3 μl. After injection, the muscles were sutured and the skin was closed with wound clips. Rats were treated daily with analgesic (carprofen, 5 mg/kg) and antibiotic (enrofloxacin, 5 mg/kg). 3 days after surgery (for toxicity tests) or 1 month after surgery (nervous regeneration tests) animals were sacrificed by transcardial perfusion with 4% paraformaldehyde. Spinal cords were removed, embedded in OCT, frozen and sliced into 16 μm thick longitudinal sections. For immunofluorescence analysis slices were permeabilized and blocked with PBS/0.3% TritonX-100/10% Normal Goat Serum (NGS) for 1 hour at room temperature. […]

spinal cord of rats [3] = assay: In vivo nervous regeneration test, spinal cord injections, 1 month; settings: one month after injections
Procedure: as §1
Female Sprague-Dawley rats weighting 200-250 gr (Charles River Laboratories) were divided into two groups: 1) animals receiving injections of saline solution (control group, n=3) and 2) animals treated with B24 (n=3). In the case of long term observations (1 month) similar injections of B24 were used (n=2). Rats were anesthetized with an intraperitoneal injection of ketamine (80 mg/kg) and xylazine (10 mg/kg). The spinal cord was exposed at the T9-T10 level, and, after laminectomy, animals were injected with B24 (1% aqueous solution) or saline solution using a Hamilton syringe held via a micromanipulator. The solutions were delivered at distances of 500 μm, and two injections of 0.5 μl each were made at each interval, for a total dose of 3 μl. After injection, the muscles were sutured and the skin was closed with wound clips. […]

## C[C@H](NC(=O)CNC(=O)CNC(=O)CNC(=O)CCCC[C@@H]1SC[C@@H]2NC(=O)N[C@@H]21)C(=O)N[C@@H](Cc1ccccc1)C(=O)N[C@@H](C)C(=O)N[C@@H](CO)C(=O)N[C@H](C(=O)N[C@@H](CCCCN)C(=O)N[C@H](C(N)=O)[C@@H](C)O)[C@@H](C)O [peptide B24] (Biotin-GGGAFASTKT-NH2)
[1]
  live/dead cell imaging: distributed throughout the gel top surface; also recorded: a layer of widely branched cells
Spinal cord of rats [2]
  apoptotic cells (Tunel): negligible number
  infiltrated macrophages (CD68): negligible number
  neurofilament H dephosphorilated (degenerating) nervous fibers: equally present in saline-injected and in B24-treated animals
Spinal cord of rats [3]
  chronic inflammation in the spinal cord: did not exert any chronic inflammation
